Test results reported in patent publication US12723063B2, “GIPR-agonist compounds” (Eli Lilly and Company, priority 2019, dated 2026).
*1 amine or outer side, *2 acyl side, *3 side chain or, on linkers, in order; H or OH if unused. Where a SMILES comes first, the peptide text is derived from it. Side-chain parts run from the residue outwards. [ ]: non-standard residue; d: D form. The star is where a group is joined. C20 diacid = O=C(O)CCCCCCCCCCCCCCCCCCC(=O)*; γGlu = O=C(O)[C@H](CCC(=O)[*:2])N[*:1]; αMeF = C[C@](N)(Cc1ccccc1)C(=O)O; 4Pal = N[C@@H](Cc1ccncc1)C(=O)O; αMeL = CC(C)C[C@](C)(N)C(=O)O; AEEA = NCCOCCOCC(=O)O; Aib = CC(C)(N)C(=O)O

Key:
human GLP-1R = biological target: T1, human GLP-1R (Homo sapiens, UniProt P43220); test: [125I]-GLP-1 binding, SPA with WGA beads, 0.1% bacitracin; details: geometric mean, read-out: hGLP1R Ki
T1 construct: expressed in transfected cells; crude membranes
Summary of the method: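 Binding buffer was 25 mM HEPES pH 7.4 with 2.5 mM CaCl2, 1 mM MgCl2, 0.1% (w/v) bacitracin, 0.003% Tween-20 and EDTA-free protease inhibitors. Four-parameter regression gave IC50, converted to Ki (geometric mean, SEM, n independent days).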

human GcgR = biological target: T2, human GcgR (Homo sapiens, UniProt P47871); test: [125I]-Glucagon binding, SPA with WGA beads, 0.1% bacitracin; details: geometric mean, read-out: hGcgR Ki
T2 construct: expressed in transfected cells; crude membranes
Summary of the method: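 SPA competition binding with WGA beads on crude membranes from HEK293 cells stably expressing hGcgR. Buffer: 25 mM HEPES pH 7.4, 2.5 mM CaCl2, 1 mM MgCl2, 0.1% bacitracin, 0.003% Tween-20; 10-point 3-fold dilutions, NSB with 1 μM Gcg.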

T2 sequence (P47871 26-477): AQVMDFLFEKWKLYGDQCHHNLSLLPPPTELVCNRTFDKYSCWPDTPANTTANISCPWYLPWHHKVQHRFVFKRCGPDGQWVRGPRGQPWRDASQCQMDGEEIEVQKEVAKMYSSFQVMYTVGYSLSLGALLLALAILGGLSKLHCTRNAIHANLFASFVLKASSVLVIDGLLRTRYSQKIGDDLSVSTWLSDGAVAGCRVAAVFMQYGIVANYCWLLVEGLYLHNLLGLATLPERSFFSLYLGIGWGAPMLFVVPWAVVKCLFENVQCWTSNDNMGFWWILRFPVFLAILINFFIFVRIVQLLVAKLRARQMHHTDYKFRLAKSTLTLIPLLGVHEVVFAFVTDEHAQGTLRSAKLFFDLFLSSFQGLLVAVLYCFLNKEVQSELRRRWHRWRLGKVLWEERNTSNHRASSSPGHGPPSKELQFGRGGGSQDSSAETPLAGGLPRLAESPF
T1 sequence (P43220 24-463): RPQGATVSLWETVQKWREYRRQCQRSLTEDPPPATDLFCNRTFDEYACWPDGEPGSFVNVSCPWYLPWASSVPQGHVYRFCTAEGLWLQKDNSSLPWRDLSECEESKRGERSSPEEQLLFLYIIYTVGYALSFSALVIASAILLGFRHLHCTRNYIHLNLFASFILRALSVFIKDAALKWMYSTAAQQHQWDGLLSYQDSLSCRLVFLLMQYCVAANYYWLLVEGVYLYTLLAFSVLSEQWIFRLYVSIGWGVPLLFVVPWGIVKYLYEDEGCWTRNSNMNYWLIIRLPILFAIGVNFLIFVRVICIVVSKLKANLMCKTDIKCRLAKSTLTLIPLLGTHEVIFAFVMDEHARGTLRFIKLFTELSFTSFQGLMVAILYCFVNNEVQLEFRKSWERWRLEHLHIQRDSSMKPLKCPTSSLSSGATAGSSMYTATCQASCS

SMILES	Ki (human GLP-1R) [nM]	Ki (human GcgR) [nM]
CC[C@H](C)[C@H](NC(=O)[C@H](Cc1ccccc1)NC(=O)[C@@H](NC(=O)CNC(=O)[C@H](CCC(=O)O)NC(=O)C(C)(C)NC(=O)[C@@H](N)Cc1ccc(O)cc1)[C@@H](C)O)C(=O)N[C@@H](CO)C(=O)N[C@@H](CC(=O)O)C(=O)N[C@@H](Cc1ccc(O)cc1)C(=O)N[C@@H](CO)C(=O)N[C@H](C(=O)N[C@@](C)(CC(C)C)C(=O)N[C@@H](CC(C)C)C(=O)N[C@@H](CC(=O)O)C(=O)N[C@@H](CCCCN)C(=O)N[C@@H](CCCCNC(=O)COCCOCCNC(=O)COCCOCCNC(=O)CC[C@H](NC(=O)CCCCCCCCCCCCCCCCCCC(=O)O)C(=O)O)C(=O)N[C@@H](Cc1c[nH]cn1)C(=O)N[C@@H](CCC(N)=O)C(=O)NC(C)(C)C(=O)N[C@@H](CC(=O)O)C(=O)N[C@@H](Cc1ccccc1)C(=O)N[C@H](C(=O)N[C@@H](CCC(=O)O)C(=O)N[C@@H](Cc1ccc(O)cc1)C(=O)N[C@@H](CC(C)C)C(=O)N[C@@H](CC(C)C)C(=O)N[C@@H](CCC(=O)O)C(=O)N[C@H](C(=O)NCC(=O)N1CCC[C@H]1C(=O)N[C@@H](CO)C(=O)N[C@@H](CO)C(=O)NCC(=O)N[C@@H](C)C(=O)N1CCC[C@H]1C(=O)N1CCC[C@H]1C(=O)N1CCC[C@H]1C(=O)N[C@@H](CO)C(N)=O)[C@@H](C)O)C(C)C)[C@@H](C)CC [Example 66] (H-Y[Aib]EGTFISDYSI[αMeL]LDKK([AEEA-AEEA-γGlu-C20 diacid])HQ[Aib]DFVEYLLETGPSSGAPPPS-NH2)	326	279
CC[C@H](C)[C@H](NC(=O)[C@H](CO)NC(=O)[C@H](Cc1ccc(O)cc1)NC(=O)[C@H](CC(=O)O)NC(=O)[C@H](CO)NC(=O)[C@@H](NC(=O)[C@](C)(Cc1ccccc1)NC(=O)[C@@H](NC(=O)CNC(=O)[C@H](CCC(=O)O)NC(=O)C(C)(C)NC(=O)[C@@H](N)Cc1ccc(O)cc1)[C@@H](C)O)[C@@H](C)CC)C(=O)N[C@@](C)(CC(C)C)C(=O)N[C@@H](CC(C)C)C(=O)N[C@@H](CC(=O)O)C(=O)N[C@@H](CCCCN)C(=O)N[C@@H](CCCCNC(=O)COCCOCCNC(=O)COCCOCCNC(=O)CC[C@H](NC(=O)CCCCCCCCCCCCCCCCCCC(=O)O)C(=O)O)C(=O)N[C@@H](Cc1c[nH]cn1)C(=O)N[C@@H](CCC(N)=O)C(=O)NC(C)(C)C(=O)N[C@@H](CCC(=O)O)C(=O)N[C@@H](Cc1ccccc1)C(=O)N[C@H](C(=O)N[C@@H](CCC(=O)O)C(=O)N[C@@H](Cc1ccncc1)C(=O)N[C@@H](CC(C)C)C(=O)N[C@@H](CC(C)C)C(=O)N[C@@H](C)C(=O)N[C@@H](C)C(=O)NCC(=O)N1CCC[C@H]1C(=O)N[C@@H](CO)C(=O)N[C@@H](CO)C(=O)NCC(=O)N[C@@H](C)C(=O)N1CCC[C@H]1C(=O)N1CCC[C@H]1C(=O)N1CCC[C@H]1C(=O)N[C@@H](CO)C(N)=O)C(C)C [Example 62] (H-Y[Aib]EGT[αMeF]ISDYSI[αMeL]LDKK([AEEA-AEEA-γGlu-C20 diacid])HQ[Aib]EFVE[4Pal]LLAAGPSSGAPPPS-NH2)	47.6	31.3
CC[C@H](C)[C@H](NC(=O)[C@H](Cc1ccccc1)NC(=O)[C@@H](NC(=O)CNC(=O)[C@H](CCC(=O)O)NC(=O)C(C)(C)NC(=O)[C@@H](N)Cc1ccc(O)cc1)[C@@H](C)O)C(=O)N[C@@H](CO)C(=O)N[C@@H](CC(=O)O)C(=O)N[C@@H](Cc1ccc(O)cc1)C(=O)N[C@@H](CO)C(=O)N[C@H](C(=O)N[C@@](C)(CC(C)C)C(=O)N[C@@H](CC(C)C)C(=O)N[C@@H](CC(=O)O)C(=O)N[C@@H](CCCCN)C(=O)N[C@@H](CCCCNC(=O)COCCOCCNC(=O)COCCOCCNC(=O)CC[C@H](NC(=O)CCCCCCCCCCCCCCCCCCC(=O)O)C(=O)O)C(=O)N[C@@H](Cc1c[nH]cn1)C(=O)N[C@@H](CCC(N)=O)C(=O)NC(C)(C)C(=O)N[C@@H](CCC(=O)O)C(=O)N[C@@H](Cc1ccccc1)C(=O)N[C@H](C(=O)N[C@@H](CCC(=O)O)C(=O)N[C@@H](Cc1ccc(O)cc1)C(=O)N[C@@H](CC(C)C)C(=O)N[C@@H](CC(C)C)C(=O)N[C@@H](CCC(=O)O)C(=O)N[C@@H](C)C(=O)NCC(=O)N1CCC[C@H]1C(=O)N[C@@H](CO)C(=O)N[C@@H](CO)C(=O)NCC(=O)N[C@@H](C)C(=O)N1CCC[C@H]1C(=O)N1CCC[C@H]1C(=O)N1CCC[C@H]1C(=O)N[C@@H](CO)C(N)=O)C(C)C)[C@@H](C)CC [Example 65] (H-Y[Aib]EGTFISDYSI[αMeL]LDKK([AEEA-AEEA-γGlu-C20 diacid])HQ[Aib]EFVEYLLEAGPSSGAPPPS-NH2)	305	279
CC[C@H](C)[C@H](NC(=O)[C@H](CO)NC(=O)[C@H](Cc1ccc(O)cc1)NC(=O)[C@H](CC(=O)O)NC(=O)[C@H](CO)NC(=O)[C@@H](NC(=O)[C@](C)(Cc1ccccc1)NC(=O)[C@@H](NC(=O)CNC(=O)[C@H](CCC(=O)O)NC(=O)C(C)(C)NC(=O)[C@@H](N)Cc1ccc(O)cc1)[C@@H](C)O)[C@@H](C)CC)C(=O)N[C@@H](C)C(=O)N[C@@H](CC(C)C)C(=O)N[C@@H](CC(=O)O)C(=O)N[C@@H](CCCCN)C(=O)N[C@@H](CCCCNC(=O)COCCOCCNC(=O)COCCOCCNC(=O)CC[C@H](NC(=O)CCCCCCCCCCCCCCCCCCC(=O)O)C(=O)O)C(=O)N[C@@H](Cc1c[nH]cn1)C(=O)N[C@@H](CCC(N)=O)C(=O)NC(C)(C)C(=O)N[C@@H](CC(=O)O)C(=O)N[C@@H](Cc1ccccc1)C(=O)N[C@H](C(=O)N[C@@H](CCC(=O)O)C(=O)N[C@@H](Cc1ccncc1)C(=O)N[C@@H](CC(C)C)C(=O)N[C@@H](CC(C)C)C(=O)N[C@@H](CCC(=O)O)C(=O)N[C@H](C(=O)NCC(=O)N1CCC[C@H]1C(=O)N[C@@H](CO)C(=O)N[C@@H](CO)C(=O)NCC(=O)N[C@@H](C)C(=O)N1CCC[C@H]1C(=O)N1CCC[C@H]1C(=O)N1CCC[C@H]1C(=O)N[C@@H](CO)C(N)=O)[C@@H](C)O)C(C)C [Example 41] (H-Y[Aib]EGT[αMeF]ISDYSIALDKK([AEEA-AEEA-γGlu-C20 diacid])HQ[Aib]DFVE[4Pal]LLETGPSSGAPPPS-NH2)	> 906	758
CC[C@H](C)[C@H](NC(=O)[C@H](CO)NC(=O)[C@H](Cc1ccc(O)cc1)NC(=O)[C@H](CC(=O)O)NC(=O)[C@H](CO)NC(=O)[C@@H](NC(=O)[C@](C)(CC(C)C)NC(=O)[C@@H](NC(=O)CNC(=O)[C@H](CCC(=O)O)NC(=O)C(C)(C)NC(=O)[C@@H](N)Cc1ccc(O)cc1)[C@@H](C)O)[C@@H](C)CC)C(=O)N[C@@H](C)C(=O)N[C@@H](CC(C)C)C(=O)N[C@@H](CC(=O)O)C(=O)N[C@@H](CCCCN)C(=O)N[C@@H](CCCCNC(=O)COCCOCCNC(=O)COCCOCCNC(=O)CC[C@H](NC(=O)CCCCCCCCCCCCCCCCCCC(=O)O)C(=O)O)C(=O)N[C@@H](Cc1c[nH]cn1)C(=O)N[C@@H](CCC(N)=O)C(=O)NC(C)(C)C(=O)N[C@@H](CCC(=O)O)C(=O)N[C@@H](Cc1ccccc1)C(=O)N[C@H](C(=O)N[C@@H](CC(N)=O)C(=O)N[C@@H](Cc1ccc(O)cc1)C(=O)N[C@@H](CC(C)C)C(=O)N[C@@H](CC(C)C)C(=O)N[C@@H](C)C(=O)N[C@H](C(=O)NCC(=O)N1CCC[C@H]1C(=O)N[C@@H](CO)C(=O)N[C@@H](CO)C(=O)NCC(=O)N[C@@H](C)C(=O)N1CCC[C@H]1C(=O)N1CCC[C@H]1C(=O)N1CCC[C@H]1C(=O)N[C@@H](CO)C(N)=O)[C@@H](C)O)C(C)C [Example 35] (H-Y[Aib]EGT[αMeL]ISDYSIALDKK([AEEA-AEEA-γGlu-C20 diacid])HQ[Aib]EFVNYLLATGPSSGAPPPS-NH2)	177	> 960
